The text below walks through data of patent US20260159512A1, “BCAT2 INHIBITORS” (AGIOS PHARMACEUTICALS, INC., priority 2021, published 2026).

Several values for one entry are separate records, joined by “and”; a condition that tells them apart may be missing. Equal entries are not always repeated.

What all share (conditions): average where tested multiple times
Test [1] concerns the target T1, BCAT2 (Homo sapiens, UniProt O15382).
T1 sequence (O15382 28-392): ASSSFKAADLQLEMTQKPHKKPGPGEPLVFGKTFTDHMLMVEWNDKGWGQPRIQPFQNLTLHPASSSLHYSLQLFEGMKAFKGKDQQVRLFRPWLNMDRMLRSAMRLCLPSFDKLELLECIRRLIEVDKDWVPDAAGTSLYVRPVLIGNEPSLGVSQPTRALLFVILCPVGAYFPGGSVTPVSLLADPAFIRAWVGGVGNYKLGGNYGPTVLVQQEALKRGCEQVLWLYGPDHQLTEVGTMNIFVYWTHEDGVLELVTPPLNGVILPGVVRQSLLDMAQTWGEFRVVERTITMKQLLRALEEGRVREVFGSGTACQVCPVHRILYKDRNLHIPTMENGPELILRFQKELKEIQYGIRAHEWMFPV
As to the kind of experiment: BCAT2 in vitro enzyme inhibition assay (resazurin/diaphorase-coupled fluorescence). Type of test: biochemical. An outline of the steps: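 Coupled fluorescence readout: glutamate formed from L-leucine/α-ketoglutarate transamination drives GDH/NAD/diaphorase reduction of resazurin (Ex 540/Em 590). Human BCAT2 was first exposed 1 h at room temperature to compound, top final 100 μM in 3-fold, 10-point series; substrate reaction ran 1 h before SDS quench, in technical duplicate with DMSO max and enzyme-free min controls.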
On the technique in general: The colour change of resazurin is a common sign of viable cells or microbes.

Test [2] has as its target T1, BCAT2. Kind of test: BCAT2 in vitro cell inhibition using engineered A549 cells (KMV cell assay, 13C6-KMV by LC-MS/MS). Type of test: cell-based. On the set-up: The result was an engineered A549 cell line that expressed endogenous BCAT2; endogenous in cells; host or cells: A549 cells with MUT and BCAT1 knocked out by CRISPR/CAS9; key to BCAT2 Cell Inhibition: A: less than or equal to 0.100 μM; B: greater than 0.100 and less than or equal to 0.500 μM; C: greater than 0.500 and less than or equal to 1.000 μM; d: greater than 1.000 μM; E: no fit.

In the next test the target is T2, hBCAT1 (Homo sapiens, UniProt P54687).
T2 sequence (P54687 1-386): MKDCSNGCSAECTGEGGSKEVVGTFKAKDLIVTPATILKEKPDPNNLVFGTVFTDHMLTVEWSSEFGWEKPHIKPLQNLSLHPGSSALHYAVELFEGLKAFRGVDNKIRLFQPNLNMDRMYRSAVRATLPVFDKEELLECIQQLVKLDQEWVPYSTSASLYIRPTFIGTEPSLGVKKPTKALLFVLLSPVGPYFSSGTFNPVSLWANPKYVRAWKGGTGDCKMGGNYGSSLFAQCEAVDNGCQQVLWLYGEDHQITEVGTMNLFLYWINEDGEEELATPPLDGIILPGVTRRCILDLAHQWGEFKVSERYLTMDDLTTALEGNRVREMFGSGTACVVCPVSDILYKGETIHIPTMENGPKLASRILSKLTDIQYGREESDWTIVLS
Kind of test: BCAT1 in vitro enzyme inhibition assay (resazurin/diaphorase-coupled fluorescence). In kind it is biochemical. The essentials: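 Ten-point, 3-fold compound series (top final 100 μM, delivered 1:50 from 50× DMSO stocks) tested against hBCAT1. Inhibition detected via diaphorase-coupled resazurin fluorescence, duplicate wells, with values from repeated runs averaged.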

Regarding `O=C(N[C@H]1CCC[C@@H](n2c(-c3ccccc3F)nc3cnc(-c4nc[nH]n4)cc32)C1)c1ncc(Cl)s1` [Example 83, 5-chloro-N-((1S,3R)-3-(2-(2-fluorophenyl)-6-(1H-1,2,4-triazol-3-yl)-1H-imidazo[4,5-c]pyridin-1-yl)cyclohexyl)thiazole-2-carboxamide], the IC50 (commonly the concentration at which inhibition is half-maximal) against BCAT2 [1] is no more than 100 nM; at BCAT2 [2] it was no more than 100 nM; against hBCAT1 it was less than 500 nM.
As for `O=C(N[C@H]1CCC[C@@H](n2c(-c3ccccn3)nc3cnc(-n4ccnn4)cc32)C1)c1ncc(Br)s1` [Example 32, 5-bromo-N-((1S,3R)-3-(2-(pyridin-2-yl)-6-(1H-1,2,3-triazol-1-yl)-1H-imidazo[4,5-c]pyridin-1-yl)cyclohexyl)thiazole-2-carboxamide], the IC50 at BCAT2 [1] was 100 to 500 nM; against BCAT2 [2], greater than 1000 nM; against hBCAT1, 1000 to 5000 nM.
As to `C#Cc1cnc(C(=O)N[C@H]2CCC[C@@H](n3c(-c4ccccn4)nc4cnc(-n5ccnn5)cc43)C2)s1` [Example 33, 5-ethynyl-N-((1S,3R)-3-(2-(pyridin-2-yl)-6-(1H-1,2,3-triazol-1-yl)-1H-imidazo[4,5-c]pyridin-1-yl)cyclohexyl)thiazole-2-carboxamide], the half-inhibitory concentration (IC50) against BCAT2 [1] is no more than 100 nM; at BCAT2 [2], 500 to 1000 nM; on hBCAT1, 1000 to 5000 nM.
In the case of `O=C(N[C@H]1CCC[C@@H](n2c(-c3ccccc3F)nc3cnc(-c4noc(=O)[nH]4)cc32)C1)c1ncc(Cl)s1` [Example 202, 5-chloro-N-((1S,3R)-3-(2-(2-fluorophenyl)-6-(5-oxo-4,5-dihydro-1,2,4-oxadiazol-3-yl)-1H-imidazo[4,5-c]pyridin-1-yl)cyclohexyl)thiazole-2-carboxamide], the IC50 at BCAT2 [1] is no more than 100 nM; against BCAT2 [2] it was no more than 100 nM; at hBCAT1, less than 500 nM.
Consider `CC(C)Cc1nc2cnc(-c3ccccn3)cc2n1[C@@H]1CCC[C@H](NC(=O)c2ncc(Cl)s2)C1` [Example 303, 5-chloro-N-((1S,3R)-3-(2-isobutyl-6-(pyridin-2-yl)-1H-imidazo[4,5-c]pyridin-1-yl)cyclohexyl)thiazole-2-carboxamide], for which the IC50 against BCAT2 [1] was no more than 100 nM; against BCAT2 [2], 100 to 500 nM; at hBCAT1 it was less than 500 nM.
For `O=C(N[C@H]1CCC[C@@H](n2c(-c3c(O)cccc3F)nc3cnc(-c4nc[nH]n4)cc32)C1)c1ncc(Cl)s1` [Example 339, 5-chloro-N-((1S,3R)-3-(2-(2-fluoro-6-hydroxyphenyl)-6-(1H-1,2,4-triazol-3-yl)-1H-imidazo[4,5-c]pyridin-1-yl)cyclohexyl)thiazole-2-carboxamide], in that order: no more than 100 nM, no more than 100 nM and less than 500 nM.
For `C=Cc1csc(C(=O)N[C@H]2CCC[C@@H](n3c(-c4ccccc4F)nc4cnc(-c5nc[nH]n5)cc43)C2)n1` [Example 173, N-((1S,3R)-3-(2-(2-fluorophenyl)-6-(1H-1,2,4-triazol-3-yl)-1H-imidazo[4,5-c]pyridin-1-yl)cyclohexyl)-4-vinylthiazole-2-carboxamide], the IC50 was no more than 100 nM on BCAT2 [1], 500 to 1000 nM on BCAT2 [2] and 1000 to 5000 nM at hBCAT1.
As to `O=C(N[C@H]1CCC[C@@H](n2c(-c3ccccc3OC(F)F)nc3cnc(-c4nc[nH]n4)cc32)C1)c1ncc(Cl)s1` [Example 367, 5-chloro-N-((1S,3R)-3-(2-(2-(difluoromethoxy)phenyl)-6-(1H-1,2,4-triazol-3-yl)-1H-imidazo[4,5-c]pyridin-1-yl)cyclohexyl)thiazole-2-carboxamide], the results for the IC50 at BCAT2 [1] and on hBCAT1 were no more than 100 nM and less than 500 nM, respectively. Moreover, the “BCAT2 Cell Inhibition” value at BCAT2 [2] is “E”.
`CC(C)Cc1nc2cnc(-c3cccc(C#N)n3)cc2n1[C@@H]1CCC[C@H](NC(=O)c2ncc(Cl)s2)[C@H]1O` [Example 392, 5-chloro-N-((1S,2R,3R)-3-(6-(6-cyanopyridin-2-yl)-2-isobutyl-1H-imidazo[4,5-c]pyridin-1-yl)-2-hydroxycyclohexyl)thiazole-2-carboxamide]: the IC50 was 100 to 500 nM at BCAT2 [1], greater than 1000 nM against BCAT2 [2] and 1000 to 5000 nM against hBCAT1.
Consider `CC(Oc1nc2cnc(-n3nccn3)cc2n1[C@@H]1CCC[C@H](NC(=O)c2ncc(C(F)F)s2)C1)C(F)(F)F` (stereo partly drawn) [Example 98, N-((1S,3R)-3-(6-(2H-1,2,3-triazol-2-yl)-2-((1,1,1-trifluoropropan-2-yl)oxy)-1H-imidazo[4,5-c]pyridin-1-yl)cyclohexyl)-5-(difluoromethyl)thiazole-2-carboxamide], for which the IC50 on BCAT2 [1] is 100 to 500 nM; on BCAT2 [2] it was greater than 1000 nM; on hBCAT1, greater than 5000 nM.
As to `CO[C@@H]1C[C@@H](NC(=O)c2ncc(Cl)s2)C[C@@H](n2c(-c3ccccc3F)nc3cnc(-n4nccn4)cc32)C1` (stereo in doubt) [Example 424, 5-chloro-N-((1S,3R,5R)-3-(2-(2-fluorophenyl)-6-(2H-1,2,3-triazol-2-yl)-1H-imidazo[4,5-c]pyridin-1-yl)-5-methoxycyclohexyl)thiazole-2-carboxamide], the figures for the IC50 on BCAT2 [1], against BCAT2 [2] and at hBCAT1 were no more than 100 nM, no more than 100 nM and less than 500 nM, respectively.
For the molecule `COc1cccc(-c2cc3c(cn2)nc(-c2ccccc2F)n3[C@@H]2CCC[C@H](NC(=O)c3ncc(Cl)s3)C2)n1` [Example 179, 5-chloro-N-((1S,3R)-3-(2-(2-fluorophenyl)-6-(6-methoxypyridin-2-yl)-1H-imidazo[4,5-c]pyridin-1-yl)cyclohexyl)thiazole-2-carboxamide], the figures for the IC50 against BCAT2 [1], against BCAT2 [2] and against hBCAT1 were no more than 100 nM, no more than 100 nM and less than 500 nM, respectively.
Take `O=C(NC1CC(O)CC(n2c(-c3ccccc3F)nc3cnc(-n4nccn4)cc32)C1)c1ncc(Cl)s1` (stereo not drawn) [Example 109, 5-chloro-N-(3-(2-(2-fluorophenyl)-6-(2H-1,2,3-triazol-2-yl)-1H-imidazo[4,5-c]pyridin-1-yl)-5-hydroxycyclohexyl)thiazole-2-carboxamide]: the IC50 against BCAT2 [1] is no more than 100 nM; against BCAT2 [2], no more than 100 nM; at hBCAT1, less than 500 nM.
Regarding `CC(C)Cc1nc2cnc(-n3nccn3)cc2n1[C@@H]1CCC[C@H](NC(=O)c2ccc(Cl)s2)C1` [Example 74, 5-chloro-N-((1S,3R)-3-(2-isobutyl-6-(2H-1,2,3-triazol-2-yl)-1H-imidazo[4,5-c]pyridin-1-yl)cyclohexyl)thiophene-2-carboxamide], the IC50 against BCAT2 [1] was no more than 100 nM; on BCAT2 [2] it was no more than 100 nM; on hBCAT1 it was less than 500 nM.
Consider `O=C(NC1CCCCC(n2c(-c3c(O)cccc3F)nc3cnc(-c4nc[nH]n4)cc32)C1O)c1ccc(Cl)s1` (stereo not drawn) [Example 403, 5-chloro-N-(3-(2-(2-fluoro-6-hydroxyphenyl)-6-(1H-1,2,4-triazol-3-yl)-1H-imidazo[4,5-c]pyridin-1-yl)-2-hydroxycycloheptyl)thiophene-2-carboxamide], for which the IC50 was no more than 100 nM against BCAT2 [1], 100 to 500 nM against BCAT2 [2] and less than 500 nM on hBCAT1.
`CO[C@H]1C[C@H](NC(=O)c2ncc(Cl)s2)C[C@H](n2c(CC(C)C)nc3cnc(-c4ncccn4)cc32)C1` [Example 435, 5-chloro-N-((1R,3S,5S)-3-(2-isobutyl-6-(pyrimidin-2-yl)-1H-imidazo[4,5-c]pyridin-1-yl)-5-methoxycyclohexyl)thiazole-2-carboxamide]: the IC50 is no more than 100 nM at BCAT2 [1], no more than 100 nM against BCAT2 [2] and less than 500 nM against hBCAT1.
On to `O=C(N[C@H]1CCC[C@@H](n2c(-c3ccccn3)nc3cnc(-n4cncn4)cc32)C1)c1ccc(Br)s1` [Example 9, 5-bromo-N-((1S,3R)-3-(2-(pyridin-2-yl)-6-(1H-1,2,4-triazol-1-yl)-1H-imidazo[4,5-c]pyridin-1-yl)cyclohexyl)thiophene-2-carboxamide], for which the IC50 against BCAT2 [1] was no more than 100 nM; against BCAT2 [2] it was ≤ 100 nM and 100 to 500 nM; against hBCAT1, 500 to 1000 nM.
